Assay results: patent US20250064886A1, “CARDIOVASCULAR AND CEREBROVASCULAR DRUG AND USE THEREOF” (HANGZHOU ADAMERCK PHARMLABS INC., priority 2021, published 2025)
Marks after values point to notes of the source that are not given here.

Experiments:
[1] = system: arteriovenous bypass thrombosis in rats; assay: Arteriovenous bypass thrombosis in rats (Example 4); type: in vivo, rat; details: for Wet weight of thrombus / Dry weight of thrombus: in g (unit assumed)
Procedure: Grouping: Divided into 5 groups, with 10 animals in each group. The model control group was given with solvent, and the test drug compound (1) and the positive control were given intravenously once a day for consecutive 3 d. The modeling started 30 min after the last dose.
Model preparation: 50 SD male rats were anesthetized with sodium pentobarbital at a dose of 60 mg/kg via ip. The rat was fixed in the supine position, and the skin was incised at the midline of the neck; the fascia and muscle tissues were separated, the left common carotid artery and the right external jugular vein were dissociated, and the arterio-venous (A-V) bypass surgery was performed using the polyethylene tubing with a built-in thread. The arterial clip was used to clamp the proximal end of the carotid artery, and one end of the polyethylene tubing was inserted into the artery, and another end was inserted into the vein, thereby completing the bypass surgery. 30 minutes after the last dose, the arterial clip was opened, and blood flowed from the left common carotid artery to the right external jugular vein through the bypass tubing, and the blood flow formed a bypass circulation, and the thrombus was taken out 15 min later.
Detection index: the blood flow was open after 15 min, the thread was taken out, the residual liquid was sucked dry, the thread attached with thrombus was weighed and the wet weight of thrombus was calculated; the dry weight of thrombus was weighed and calculated after bake-drying in the oven at 50° C. Thrombosis inhibition rate was calculated. Tails were clipped at the end of the experiment to detect bleeding time.

[2] = system: vascular inflammation in high-glucose and high-fat zebrafish; assay: Regressive effect on vascular inflammation in high-glucose and high-fat zebrafish (Example 9); type: in vivo
Procedure: Experimental method: 360 tails of 5 dpf macrophage fluorescent zebrafish were randomly selected and placed in beakers with 30 tails in each beaker, compound (1), compound (3), and compound (5) were given intravenously, and the positive control group was given atorvastatin calcium by dissolving it in water at a concentration of 30 μg/mL, while the normal control group (fish farming water-treated zebrafish) and the model control group were set up, and the volume of each beaker (experimental group) was 25 mL. Except for the normal control group, all other groups were given high-lipids and high-sucrose feed by dissolving it in water. Compound (1), compound (3) and compound (5) group were co-treated with high-lipids and high-sucrose feed for 30 h. The treatment was carried out up to 9 dpf, and 10 zebrafish were randomly selected from each experimental group to collect the intensity of the macrophage fluorescence within the tail vein and around the tail vein of the zebrafish under fluorescence microscope, and the results of the statistical analysis were used to evaluate the regressive effect of compound (1), compound (3), compound (5) on zebrafish vascular inflammation in the high sugar and high fat model.

[3] = system: cerebral ischemic injury in rats caused by autologous thrombus and thrombin; assay: Ischemic brain injury in rats caused by autologous thrombus and thrombin (Example 6); type: in vivo, rat
Procedure: The drug was administered once by slow tail vein injection (1 ml per minute) 2 h after modeling, and the decrease in blood flow was monitored after the injection of thrombin, and 120 min after the administration of the drug. Neurobehavioral scoring was performed to determine the neurological function of rats after 24 h. The cerebral infarction rate and cerebral water content of rats were determined using 2,3,5-triphenyltetrazolium chloride (TTC) staining method, and the pathological damage of the brain of rats administered with drug 2 h after cerebral ischemia was observed by hematoxylin-eosin (HE) staining.

## CC(=O)N[C@H](CSCC1OC2OC3C(CSC[C@@H](NC(C)=O)C(=O)[O-])OC(OC4C(CSC[C@@H](NC(C)=O)C(=O)[O-])OC(OC5C(CSC[C@@H](NC(C)=O)C(=O)[O-])OC(OC6C(CSC[C@@H](NC(C)=O)C(=O)[O-])OC(OC7C(CSC[C@@H](NC(C)=O)C(=O)[O-])OC(OC8C(CSC[C@@H](NC(C)=O)C(=O)[O-])OC(OC9C(CSC[C@@H](NC(C)=O)C(=O)[O-])OC(OC1C(O)C2O)C(O)C9O)C(O)C8O)C(O)C7O)C(O)C6O)C(O)C5O)C(O)C4O)C(O)C3O)C(=O)[O-].[Na+].[Na+].[Na+].[Na+].[Na+].[Na+].[Na+].[Na+] (stereo partly drawn) [Compound (1)]
[1]; 10 mg/kg i.v.
  Dry weight inhibition rate (%): 15.9%
  Wet weight inhibition rate (%): 19.4%
[1]; 10 mg/kg i.v. once a day 3 d, x ± s, n = 10
  Wet weight of thrombus: 0.0254 ± 0.0042
[1]; 10 mg/kg i.v. once a day 3 d
  Dry weight of thrombus: 0.0069 ± 0.0014
[1]; 20 mg/kg i.v.
  Dry weight inhibition rate (%): 26.8%
  Wet weight inhibition rate (%): 21.9%
[1]; 20 mg/kg i.v. once a day 3 d
  Dry weight of thrombus: 0.006 ± 0.0014
  Wet weight of thrombus: 0.0246 ± 0.0045
[1]; 40 mg/kg i.v.
  Dry weight inhibition rate (%): 37.8%
  Wet weight inhibition rate (%): 34.3%
[1]; 40 mg/kg i.v. once a day 3 d
  Dry weight of thrombus: 0.0051 ± 0.0011
  Wet weight of thrombus: 0.0207 ± 0.0041
[2]; 222 ng/tail intravenous
  Anti-inflammatory effect (%): 27*** %
  Fluorescence intensity of perivascular macrophage (pixels, Mean ± SE): 134308 ± 6117 pixels
[2]; 667 ng/tail intravenous
  Anti-inflammatory effect (%): 37*** %
  Fluorescence intensity of perivascular macrophage (pixels, Mean ± SE): 116848 ± 5036 pixels
[2]; 2000 ng/tail intravenous
  Anti-inflammatory effect (%): 41*** %
  Fluorescence intensity of perivascular macrophage (pixels, Mean ± SE): 108154 ± 4723 pixels
[3]; 22.5 mg/kg group, value before administration, mean ± SD, n = 10
  Cerebral blood flow: Percentage decrease after injection of thrombin (%): 43.67 ± 7.17%
[3]; 22.5 mg/kg i.v.
  Cerebral infarction rate (%): 13.91 ± 10.78 %
  Cerebral water content (%): 79.93 ± 1.98 %
[3]; 22.5 mg/kg i.v. once 2 h after modeling
  Cerebral blood flow: Percentage decrease two hours after administration (%): 27.14 ± 6.38 %
[3]; 22.5 mg/kg i.v., HE staining, mean ± SD, n = 10
  Pathological damage score: 1.90 ± 1.10
[3]; 22.5 mg/kg i.v., after 24 h
  Behavioral score: 1.60 ± 0.70
